# Entries after “also recorded” stand apart in the source; their conditions may differ.
# Key:
# [1] = tested on: primary neurons; experiment: Neuron viability, MTS cell cytotoxicity assay (Promega); assay type: cell-based, mouse; conditions: 24 hour incubation, 500 nM or higher
# Description: Primary neurons were isolated from P1-3 mouse pups by preferential adherence to poly-D-lysine coating. They were left to mature for 5 days before addition of compound at the stipulated concentrations for 24 h. The MTS assay (Promega) was used to assess viability according to manufacturer's instructions.
# For long term tracking and downstream functional studies, it is critical that the compound is not cytotoxic towards the cells and that cells remain viable after staining.
# [2] = Quantum yield measurements versus Acridine Yellow in EtOH; assay type: physicochemical
# Outline: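 Fluorescence quantum yield is relative to Acridine Yellow in EtOH (Φ 0.47), with excitation at 460 nm. Integrated emission at 510–700 nm was corrected for absorbance at the excitation wavelength and for solvent refractive index.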
# [3] = tested on: primary neurons; experiment: Primary brain cell screening platform (neurons, astrocytes, microglia); assay type: cell-based; conditions: 500 nM, 1 hour
# Description: Esterification to MKAA (and possibly other esters) improves permeability into intact live cells while maintaining staining specificity (FIG. 12). The acetylated MKAA undergoes rapid hydrolysis by cellular esterases after crossing the live cell membrane generates the active MKHA compound responsible for the fluorescence response. FIGS. 13 and 14 show the structures of example MKHA compounds that have been synthesized and tested for primary neuron staining.
# For neuron probe discovery, a primary brain cell screening platform was utilized, which involved the use of primary neurons, astrocytes and microglia isolated by differential adhesion methods. These cells were prepared alongside one another in 384-well microplates and incubated in duplicate with 5,000 DOFL compounds at 500 nM concentrations for 1 hour at 4-5 days post-isolation (FIG. 15). […] The compound MKHA374-48 is alternately referred to herein as NeuO (pronounced “neo”) for Neuron Orange.
# [4] = Absorbance and fluorescence emission spectra (SpectraMax M2); assay type: physicochemical
# Outline: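 Absorbance and emission maxima measured on a SpectraMax M2 spectrophotometer, which also gave quantum yield data; analysis in GraphPrism.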
# [5] = tested on: neurons; experiment: Time lapse imaging of in vitro neuronal development; assay type: cell-based, mouse; conditions: 500 nM
# Description: The survival of the cells and dye signal is critical in time lapse studies to analyze neuronal development and interaction with other neural cells.
# [6] = tested on: live neurons; experiment: Live cell compound staining and immunostaining of mixed primary neural cell cultures; assay type: cell-based, mouse; conditions: 500 nM, brain cell preparations from P1-P3 mice
# Description: Cells were stained with 500 nM of MKHA101-3 (Green) and imaged at 10× magnification before fixing with 4% PFA. They were then permeabilized with 0.1% Triton-X and immunostained with GFAP (Red) and neurons (Green).
# Cells were stained with 500 nM of NeuO (Green) and imaged at 10× magnification before fixing with 4% PFA. They were then permeabilized with 0.1% Triton-X and immunostained with β-III-tubulin (Tuji, Yellow), GFAP (Red) and O4).
# Using the heterogeneous brain cell preparations from P1-P3 mice, cells that were compound positive were also found to be β-III-tubulin positive (FIG. 17).
# Using the heterogeneous brain cell preparations from P1-P3 mice, cells that were compound positive were also found to be β-III-tubulin (Tuji) positive (FIG. 18a). […] NeuO appears to stain all neurons regardless of subtype (FIG. 18b).
# [7] = tested on: mixed primary neural cell populations; experiment: Flow cytometry analysis and FACS sorting of mixed primary neural cells; assay type: cell-based, mouse
# Description: Unstained controls are shown in each spectrum from about 0 to about 1 G.
# To further analyze this population of compound positive cells, the two populations (Bright and Dim) were sorted out cell re-culture and RNA extraction for gene analysis.
# [8] = biological target: T1, HSA (Homo sapiens, UniProt P02768); experiment: Fluorescence response to serial dilutions of HSA; assay type: binding
# T1 sequence (P02768 25-609): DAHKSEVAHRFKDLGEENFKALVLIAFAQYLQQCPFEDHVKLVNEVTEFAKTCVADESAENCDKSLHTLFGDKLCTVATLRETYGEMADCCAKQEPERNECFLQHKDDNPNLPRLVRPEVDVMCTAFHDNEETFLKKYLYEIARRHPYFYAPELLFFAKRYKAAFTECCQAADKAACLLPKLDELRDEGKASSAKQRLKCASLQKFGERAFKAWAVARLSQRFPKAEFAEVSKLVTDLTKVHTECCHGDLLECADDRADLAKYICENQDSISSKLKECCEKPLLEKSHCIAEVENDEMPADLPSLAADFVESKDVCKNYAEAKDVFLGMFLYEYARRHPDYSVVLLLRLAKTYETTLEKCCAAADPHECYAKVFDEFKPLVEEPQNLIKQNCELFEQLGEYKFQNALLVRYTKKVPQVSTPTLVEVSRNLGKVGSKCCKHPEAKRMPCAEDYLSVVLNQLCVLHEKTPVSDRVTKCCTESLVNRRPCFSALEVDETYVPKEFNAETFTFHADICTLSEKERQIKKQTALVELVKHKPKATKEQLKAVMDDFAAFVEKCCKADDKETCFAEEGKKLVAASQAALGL
# Description: Values are represented as means (n=3).
# Mixtures of BDC-9 with HSA were prepared in phosphate buffer (pH 7.3, 1% DMSO) at room temperature and fluorescence measurements were taken after incubation for 2 h unless otherwise stated.
# [9] = biological target: human serum albumin (Homo sapiens, UniProt P02768); experiment: In vitro fluorescence screening against 84 biologically relevant analytes / 16 proteins; assay type: binding; conditions: 10 μM, 10 mM HEPES pH 7.4, 1% DMSO
# human serum albumin, sequence (P02768 25-609): as above
# Description: F0 is the fluorescence intensity of BDC-9 in HEPES buffer. Values are represented as means (n=4).
# Amino-triazolyl-BODIPYs (10 μM) were screened in 10 mM HEPES buffer, pH 7.4, containing 1% DMSO. Fluorescence intensities were measured using a SpectraMax M2 platereader in 384-well plates. Excitation was provided at each compound's excitation range, and emission spectrum was obtained starting from at least 30 nm beyond the excitation wavelength. All the analytes were tested at four serial concentrations.
# The fluorescent response of BDC, BDCAC and BDCCA was examined against 84 biologically relevant analytes that were categorized into nine different sets (i.e. pH standards, viscous solutions, genetic macromolecules, peptides, metal ions, redox molecules, nucleic acids, proteins and other metabolites).
# [10] = Effect of solvent viscosity on fluorescence intensity (molecular rotor); assay type: physicochemical; conditions: 100 μM, rt, solvents of similar polarity
# Description: The fluorescence spectra of compound (BDC-9) in different solvents of similar polarities but covering a range of viscosities were analyzed. […] Increased solvent viscosity reduces bond rotation at positions 3 and 5 of the BODIPY core, which, without being bound to theory, minimizes non-radiative energy loss and leads to higher quantum yields (24).
# [11] = biological target: HSA (fatty-acid free) (Homo sapiens, UniProt P02768); experiment: Competition with site-selective HSA-binding drugs; conditions: from competition assays
# HSA (fatty-acid free), sequence (P02768 25-609): as above
# Description: HSA (fatty-acid free) (0.34 mg/mL, 5 μM) was preincubated for 2 h in phosphate buffer with different concentrations of the drugs (up to 200 μM) before BDC-9 (10 μM) was added. F is the fluorescence intensity at the indicated drug concentration and F0 is the fluorescence intensity with no drug added; λexc.: 460 nm, λem.: 575 nm; values are represented as means and error bars as standard deviations (n=3).
# The binding properties of BDC-9 were studied. HSA consists of at least nine binding sites (34-38), amongst which fatty acid (FA) sites 1, 3 and 4 (Sudlow Site II), 5, 6 and 7 (Sudlow Site I) are known to have affinity for drug compounds (31,39-44). […] To verify specific binding and determine the binding site(s) of BDC-9 in HSA, competition assays using drugs binding to the respective sites (e.g. hemin (FA1 site)(71,72), dansyl-L-norvaline (FA3/4 sites) (73), propofol (FA3/4 and FA5 sites) (35), ibuprofen (FA3/4 and FA6 sites) (74) and warfarin (FA7 site) (74) were performed (75).
# There have been several reports of fluorescent dyes binding to FA3/4 (48,49,73), FA6 (51) and FA7 (54,55,76) sites. The present invention represents the first known experimentally proven fluorescent dye binding to the FA1 site (76), in which binding is not dependent on contact with bound lipid (72). BDC-9 is therefore a valuable probe for examining the heme region on HSA.
# [12] = tested on: serum albumins from rat (RSA), porcine (PSA), rabbit (RbSA), sheep (SSA) and bovine (BSA); experiment: Species selectivity: fluorescence response to serum albumins of different species; assay type: binding; conditions: 10 μM, albumins 1.2×10^−4 to 4 mg/mL
# Description: FIGS. 7a and 7b show species selectivity of BDC-9. […] FIG. 7b is a photographic image of BDC-9 (10 μM) mixed with respective albumins. Irradiation with a handheld UV lamp at 365 nm.
# The selectivity of BDC-9 towards serum albumins from different species was investigated. Serum albumins represent a family of proteins with a high degree of similarity in their primary sequence across various species (˜75% homology) (34,39,40,62). […] The fluorescence response of BDC-9 was evaluated against serial concentrations of serum albumins from rat (RSA), porcine (PSA), rabbit (RbSA), sheep (SSA) and bovine (BSA).
# [13] = biological target: T1, HSA; experiment: Determination of dissociation constant with HSA (fluorescence titration, one-site model); conditions: HSA 10 μM, one-site specific binding model
# Description: HSA (10 μM) was titrated against serial concentrations of BDC-9 (0.47 to 60 μM) and the fluorescence intensities were measured at 575 nm (λexc=460 nm). The fluorescence intensity of bound BDC-9 at each concentration was determined using the equation:
# [formula] where F and F0 are the fluorescence intensities of a given concentration of BDC-9 with and without HSA respectively. Fsat is the fluorescence intensity at the same concentration of BDC-9 when fully bound.
# [14] = biological target: T1, HSA; experiment: Quantification of HSA in spiked urine samples; conditions: urine spiked with HSA up to 1 mg/mL
# Description: HSA (0 to 1 mg/mL) was added to 10% urine from healthy individuals in phosphate buffer (pH=7.3). BDC-9 was added at 10 μM concentration; λexc.: 460 nm, λem.: 575 nm; values represented as means (n=3) and error bars as standard deviations; linear regression: R^2=0.998.
# In order to examine the selectivity and sensitivity of BDC-9 in complex matrices, BDC-9 was utilized to quantify the amount of HSA in urine samples. Microalbuminuria, which involves an albumin excretion rate of 15 to 40 μg/mL (80, 81), is a well-established cardiovascular risk marker and an indication of liver and renal disease (32,33). The fluorescence response of BDC-9 was analyzed in urine that was spiked with different amounts of HSA, up to 1 mg/mL.
smiles,measurement,setting,value
"CCCc1cn(C2=[N+]3C(=C(c4ccc(NC(=O)CO)cc4)c4ccc(NCc5ccccc5)n4[B-]3(F)F)C=C2)nn1 [MKHA374-48, 7-(benzylamino)-5,5-difluoro-10-(4-(2-hydroxyacetamido)phenyl)-3-(4-propyl-1H-1,2,3-triazol-1-yl)-5H-dipyrrolo[1,2-c:2′,1′-][1,3,2]diazaborinin-4-ium-5-uide]",effect on cell viability,[1],did not affect cell viability significantly
same,φ (%),"[2]; MKHA compounds, quantum yield",0.3684%
same,fluorescence response / selectivity towards primary neurons in screening,[3],superior selectivity towards live neurons compared to the original MKHA101-3
same,absorbance λmax,[4]; FIG. 2 normalized spectra,468 nm
same,emission λmax,[4]; FIG. 2 normalized spectra,557 nm
same,λmax Absorp. (nm),"[4]; MKHA compounds, absorbance maximum",468 nm
same,λmax Emission (nm),"[4]; MKHA compounds, fluorescence emission maximum",557 nm
same,time lapse imaging of stained neurons,[5],Bright NeuO stained neurons can be seen migrating from the interior of the sphere
same,staining specificity for neurons over other neural cells,[6],stains the cell bodies and dendrites specifically over other neural cells
same,flow cytometry profile of stained mixed neural cell populations,[7],neuronal population segregating from the main population
"Nc1ccc(C2=C3C=CC(N4CCCCC4)=[N+]3[B-](F)(F)n3c2ccc3-n2cc(-c3ccccc3)nn2)cc1 [BDC-9, 10-(4-aminophenyl)-5,5-difluoro-7-(4-phenyl-1H-1,2,3-triazol-1-yl)-3-(piperidin-1-yl)-5H-dipyrrolo[1,2-c:2′,1′-f][1,3,2]diazaborinin-4-ium-5-uide]",increase in fluorescence upon binding to HSA,"[8]; 10 μM, phosphate buffer, λexc 460 nm",220 fold
same,limit of detection of HSA,[8]; S/N=3,0.3 µg/mL
same,φ (quantum yield),"[2]; BDC library, Table 2, excitation 460 nm",0.22%
same,λmax Absorp.,"[4]; BDC library, Table 2",472 nm
same,λmax Emission,"[4]; BDC library, Table 2",581 nm
same,selectivity of fluorescence response among proteins and analytes,[9],remarkable selectivity towards human serum albumin
same,fluorescence intensity versus solvent viscosity,[10],systematically increased in more viscous alcohols; also recorded: strong correlation between fluorescence intensity and viscosity
same,binding site on HSA,[11],binding to the FA1 site (heme site) of HSA
same,selectivity towards HSA versus serum albumins from other species,[12],marked selectivity towards HSA with marginal response on the other species
same,Kd,[13],12.7 ± 0.4 µM
same,correlation between fluorescence response and amount of HSA in urine,[14],excellent linear correlation
